Assay results as given in patent publication US10221163B2 (priority 2015, dated 2019).
Read-outs that look alike come from different tables or passages of the source.

Columns and labels:
[1] = system: Pseudomonas aeruginosa efflux+ (MB9798), IMP-1; type: cell-based; settings: concentration restoring susceptibility to imipenem at 2 μg/mL in the presence of a class A, C, D serine β-lactamase inhibitor closely related to relebactam
Procedure, shortened: (§1)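 PAO1 pair, broth microdilution; fixed β-lactam (imipenem/ceftazidime) at ~CLSI breakpoint + fixed class A/C BLI for AmpC; serial MBLi titration; endpoint = MBLi conc. restoring susceptibility; MB9798:MB9799 ratio = efflux liability.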

IMP-1 = IMP-1 (Serratia marcescens, UniProt P52699); assay: biochemical; type: biochemical; settings: fluorescence assay, CCF2-FA substrate, 2 pM enzyme, 2 hours at 25° C.; read-out: IMP-1 IC50
IMP-1, sequence (P52699 whole entry, looked up, species assumed): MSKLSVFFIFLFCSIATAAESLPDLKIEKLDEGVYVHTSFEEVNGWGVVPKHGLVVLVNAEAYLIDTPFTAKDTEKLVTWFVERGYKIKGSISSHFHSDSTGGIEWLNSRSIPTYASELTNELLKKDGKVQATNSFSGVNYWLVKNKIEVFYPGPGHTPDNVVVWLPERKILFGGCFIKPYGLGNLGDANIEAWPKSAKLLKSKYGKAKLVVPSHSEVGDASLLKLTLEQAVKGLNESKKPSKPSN
Procedure, shortened: (§2)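 Two-hour, 25° C incubation of enzyme with inhibitor and CCF2-FA (7-hydroxycoumarin–cephalosporin–fluorescein). Fluorescence read-out; IC50 via 4-parameter fit.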

NDM-1 = NDM-1 (Klebsiella pneumoniae, UniProt C7C422); assay: biochemical; type: biochemical; settings: fluorescence assay, CCF2-FA substrate, 1 pM enzyme, 2 hours at 25° C.; read-out: NDM-1 IC50
NDM-1, sequence (C7C422 whole entry, looked up, species assumed): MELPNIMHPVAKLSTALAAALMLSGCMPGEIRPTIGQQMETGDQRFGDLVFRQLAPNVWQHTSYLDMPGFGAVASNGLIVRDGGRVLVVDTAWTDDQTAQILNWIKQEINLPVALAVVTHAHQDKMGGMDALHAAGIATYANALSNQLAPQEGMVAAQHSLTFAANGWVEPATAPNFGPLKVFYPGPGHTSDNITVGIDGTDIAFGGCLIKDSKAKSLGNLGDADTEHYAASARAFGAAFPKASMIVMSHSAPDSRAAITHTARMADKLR
Procedure, shortened: as §2

VIM-1 = VIM-1 (Pseudomonas aeruginosa (strain ATCC 15692 / DSM 22644 / CIP 104116 / JCM 14847 / LMG 12228 / 1C / PRS 101 / PAO1), UniProt A0A0F7KYQ8); assay: biochemical; settings: CCF2-FA substrate, 30 pM enzyme, 2 hours at 25° C.
Procedure, shortened: as §2

[2] = system: Pseudomonas aeruginosa efflux− (MB9799), IMP-1; type: cell-based; settings: concentration restoring susceptibility to imipenem at 2 μg/mL in the presence of a class A, C, D serine β-lactamase inhibitor closely related to relebactam
Procedure, shortened: as §1

[3] = system: Klebsiella pneumoniae expressing VIM-1 (IHMA599644); type: cell-based; settings: VIM-1 strain IHMA599644, with imipenem 1 μg/ml, 95% inhibition of growth
Procedure, shortened: (§3)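 Clinical isolates (E. coli NDM-1, S. marcescens IMP-1, K. pneumoniae VIM-1) were diluted 1:100 from saline suspension into 1.1×CAMHB and exposed to test compound with imipenem at 1 μg/ml. Plates were incubated at 35° C for 22 hours to 24 hours, and growth was read by absorbance.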

[4] = system: Serratia marcescens expressing IMP-1 (CL5741); type: cell-based; settings: IMP-1 strain CL5741, with imipenem 1 μg/ml, 95% inhibition of growth
Procedure, shortened: as §3

[5] = system: Escherichia coli expressing NDM-1 (CLB30005, CLB30016); type: cell-based; settings: NDM-1 strain, with imipenem 1 μg/ml, 95% inhibition of growth
Procedure, shortened: as §3

[6] = system: Pseudomonas aeruginosa MB9798 vs MB9799; settings: ratio MITC95 PA_9798/MITC95 PA_9799
Procedure, shortened: as §1

[7] = fluorescence assay, read-out: VIM-1 IC50

Structure (SMILES) | P. aeruginosa expressing IMP-1, efflux + (MB9798) MITC95 [1] [µM] | IC50 (IMP-1) [nM] | IC50 (NDM-1) [nM] | IC50 (VIM-1; VIM-1 IC50, fluorescence assay) [nM] | P. aeruginosa expressing IMP-1, efflux − (MB9799) MITC95 [2] [µM] | Klebsiella pneumoniae MITC95 [3] [µM] | Serratia marcescens MITC95 [4] [µM] | Escherichia coli MITC95 [5] [µM] | Efflux ratio [6] | IC50 (VIM-1; [7]) [nM]
Nc1nc(-c2cccc(-c3ccc(S(=O)(=O)N[C@H]4CCNC4)c(S(N)(=O)=O)c3-c3nn[nH]n3)c2)c[nH]1 [Example 294, (S)-3′-(2-amino-1H-imidazol-4-yl)-N4-(pyrrolidin-3-yl)-2-(2H-tetrazol-5-yl)-[1,1′-biphenyl]-3,4-disulfonamide] | 1.563 | 1.72 | 0.197 | 0.742 | 0.7813 | 1.563 | 0.7813 | 0.3906 | 2.00 | 
CNc1nc2c(-c3ccc(S(=O)(=O)N[C@H]4CCNC4)c(S(N)(=O)=O)c3-c3nn[nH]n3)cccc2[nH]1 [Example 295, (S)-4-(2-(methylamino)-1H-benzo[d]imidazol-4-yl)-N1-(pyrrolidin-3-yl)-3-(2H-tetrazol-5-yl)benzene-1,2-disulfonamide] | 0.7813 | 0.775 | 0.0561 |  | 0.7813 | 1.563 | 0.7813 | 0.7813 | 1.00 | 0.172
N[C@H](CO)CNS(=O)(=O)c1ccc(-c2cccc3[nH]cnc23)c(-c2nn[nH]n2)c1S(N)(=O)=O [Example 296, (S)—N^1-(2-amino-3-hydroxypropyl)-4-(1H-benzo[d]imidazol-4-yl)-3-(2H-tetrazol-5-yl)benzene-1,2-disulfonamide] | 0.7813 | 0.198 | 0.0409 |  | 0.7813 | 3.125 | 1.563 | 1.563 | 1.00 | 0.184
Nc1ccc(-c2ccc(S(=O)(=O)NC[C@H](N)CO)c(S(N)(=O)=O)c2-c2nn[nH]n2)cn1 [Example 297, (S)—N^1-(2-amino-3-hydroxypropyl)-4-(6-aminopyridin-3-yl)-3-(2H -tetrazol-5-yl) benzene-1,2-disulfonamide] | 0.7813 | 0.569 | 0.331 |  | 0.7813 | 1.563 | 0.7813 | 0.3906 | 1.00 | 0.423
NC[C@@H](O)CNS(=O)(=O)c1ccc(-c2cccc3[nH]c(N)nc23)c(-c2nn[nH]n2)c1S(N)(=O)=O [Example 298, (R)-4-(2-amino-1H-benzo[d]imidazol-4-yl)-N1-(3-amino-2-hydroxypropyl)-3-(2H-tetrazol-5-yl)-benzene-1,2-disulfonamide] | 0.3555 | 0.671 | 0.0573 |  | 0.5156 | 1.031 | 0.4531 | 0.2786 | 0.69 | 0.135
NCc1nc2c(-c3ccc(S(=O)(=O)NC[C@H](O)CN)c(S(N)(=O)=O)c3-c3nn[nH]n3)cccc2[nH]1 [Example 299, (R)—N1-(3-amino-2-hydroxypropyl)-4-(2-(aminomethyl)-1H-benzo[d]imidazol-4-yl)-3-(2H-tetrazol-5-yl)benzene-1,2-disulfonamide] | 0.7813 | 2.65 | 0.265 | 0.154 | 0.7813 | 1.563 | 1.563 | 0.7813 | 1.00 | 
NCc1nc2c(-c3ccc(S(=O)(=O)NC[C@H](O)CN)c(S(N)(=O)=O)c3-c3nn[nH]n3)cccc2s1 [Example 300, (R)—N1-(3-amino-2-hydroxypropyl)-4-(2-(aminomethyl)benzo[d]thiazol-4-yl)-3-(2H-tetrazol-5-yl)benzene-1,2-disulfonamide] | 0.7813 | 0.318 | 0.0703 | 0.0678 | 0.7813 | 1.563 | 1.563 | 1.563 | 1.00 | 
NC[C@@H](O)CNS(=O)(=O)c1ccc(-c2cccc3[nH]cnc23)c(-c2nn[nH]n2)c1S(N)(=O)=O [Example 301, (R)-4-(1H-benzo[d]imidazol-4-yl)-N1-(3-amino-2-hydroxypropyl)-3-(2H-tetrazol-5-yl)-benzene-1,2-disulfonamide] | 0.7813 | 0.129 | 0.0163 |  | 0.7813 | 3.125 | 0.3906 | 1.563 | 1.00 | 0.0528
Cn1c(N)nc2c(-c3ccc(S(=O)(=O)NC[C@H](O)CN)c(S(N)(=O)=O)c3-c3nn[nH]n3)cccc21 [Example 302, (R)-4-(2-amino-1-methyl-1H-benzo[d]imidazol-4-yl)-N1-(3-amino-2-hydroxypropyl)-3-(2H-tetrazol-5-yl)benzene-1,2-disulfonamide] | 0.7813 | 0.341 | 0.0449 | 0.141 | 0.7813 | 1.563 | 0.7813 | 0.7813 | 1.00 | 
NC[C@@H](O)CNS(=O)(=O)c1ccc(-c2ccc(N)nc2)c(-c2nn[nH]n2)c1S(N)(=O)=O [Example 303, (R)-N1-(3-amino-2-hydroxypropyl)-4-(6-aminopyridin-3-yl)-3-(2H-tetrazol-5-yl)benzene-1,2-disulfonamide] | 0.7813 | 0.536 | 0.255 | 0.169 | 0.7813 | 1.953 | 0.5859 | 0.2197 | 1.00 | 
NC[C@H](O)CNS(=O)(=O)c1ccc(-c2cccc3[nH]c(N)nc23)c(-c2nn[nH]n2)c1S(N)(=O)=O [Example 304, (S)-4-(2-amino-1H-benzo[d]imidazol-4-yl)-N1-(3-amino-2-hydroxypropyl)-3-(2H-tetrazol-5-yl)-benzene-1,2-disulfonamide] | 0.3906 | 0.617 | 0.0608 |  | 0.7813 | 1.563 | 0.7813 | 0.3906 | 0.50 | 0.208
NCc1nc2c(-c3ccc(S(=O)(=O)NC[C@@H](O)CN)c(S(N)(=O)=O)c3-c3nn[nH]n3)cccc2[nH]1 [Example 305, (S)—N1-(3-amino-2-hydroxypropyl)-4-(2-(aminomethyl)-1H-benzo[d]imidazole-4-yl)-3-(2H-tetrazol-5-yl)benzene-1,2-disulfonamide] | 0.7813 | 2.06 | 0.136 | 0.175 | 0.7813 | 1.563 | 1.172 | 1.172 | 1.00 | 
